Measured values published in patent publication US4489084A, “[1-(2-Oxazolyl) or -(2-thiazolyl) hydrazino]alkyl nitriles” (Abbott Laboratories, priority 1983, dated 1984).
Counter-ions that a name gives are not always drawn.

Key:
[1] = tested on: dermal Arthus reaction (Type III hypersensitivity); assay: reverse passive Arthus assay (Carter and Krause); format: in vivo, rats (male Sprague-Dawley); details: 100 mg/kg, oral, 30 min before intradermal AntiB.S.A.; lesion after 4 hours; 4 rats per group
Protocol: Proc. 35, 774 (1976). Each compound was administered orally to a group of four animals. The reserve passive Arthus reaction test in rats is conducted as follows: Male Sprague-Dawley rats weighing approximately 130-160 g. are used, 4 rats per group. All animals are injected intravenously with 0.5 ml. 0.075% Bovine Serum Albumin (B.S.A.) +2% Evans Blue solution. Each rat then receives an oral dose of drug; one drug is administered per group. Thirty minutes subsequent to drug dosing, each animal is injected intradermally with 0.05 ml. 1.44% AntiB.S.A. into the dorsal skin. Four hours later the animals are sacrificed, the dorsal skin reflexed, and the lesion excised. Two perpendicular diameters of each lesion are measured. The average diameters of the lesions from the treated groups are compared with the average diameters from the control group to determine any drug effect. […] Proc. 35, 774 (1976)]. Each compound was administered orally to a group of four animals.

[2] = tested on: carrageenin pleurisy (accumulation of exudate volume and leukocytes); assay: carrageenin pleurisy assay (modification of Vinegar et al.); format: in vivo; details: Dose 100 (unit not given); for % Inhibition, Volume exudates: exudate volume; for % Inhibition, Cells: leukocyte accumulation
Text: The anti-inflammatory activity of these compounds was established by using a modification of the carrageenin pleurisy assay described by Vinegar et al. Proc. Soc. Exp. Biol. Med. 143:711 (1973).

Row | Compound | % Inhibition of lesion of dermal Arthus reaction [1] | % Inhibition, Volume exudates [2] [%] | % Inhibition, Cells [2] [%]
1 | Cl.N#CCCN(N)c1nc(-c2ccccc2)co1 [3-[1-(4-Phenyl-2-oxazolyl)-hydrazino]propanenitrile hydrochloride] | 59% | – | –
2 | Cl.N#CCCN(N)c1ncco1 [3-[1-(2-Oxazolyl)hydrazino]propanenitrile hydrochloride] | 42% | 32 | 21
3 | Cc1nc(N(N)CCC#N)oc1C.Cl [3-[1-(4,5-dimethyl-2-oxazolyl)-hydrazino]propanenitrile hydrochloride] | 38% | – | –
4 | N#CCCN(N)c1nc(-c2ccccc2)c(-c2ccccc2)o1 [3-[1-(4,5-diphenyl-2-oxazolylhydrazino)]propanenitrile hydrochloride] | 40% | – | –
5 | CCCCC1C(=O)N(c2ccccc2)N(c2ccccc2)C1=O [Phenylbutazone, reference compound] | Inactive | 59 | 13
